Data: PubChem BioAssay (NCI)
Several values for one entry are separate records, joined by “and”; a condition that tells them apart may be missing. Identical values can stand only once.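 Cells were grown in 96-well plates and exposed to each compound for 48 hours at five concentrations; endpoints were interpolated linearly between bracketing concentrations, or set to the highest concentration if not reached. GI50 = concentration required for 50% inhibition of growth. TGI is the concentration that stops growth completely.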

Key:
Assay in all cases: NCI-60 cell line screen, 48 h
SK-MEL-2 melanoma = system: SK-MEL-2 melanoma
M14 melanoma = system: M14 melanoma
KM12 colon = system: KM12 colon
COLO 205 colon = system: COLO 205 colon
EKVX NSCLC = system: EKVX NSCLC
ACHN renal = system: ACHN renal
RXF 393 renal = system: RXF 393 renal
SF-295 CNS = system: SF-295 CNS
IGROV1 ovarian = system: IGROV1 ovarian
DMS 273 small cell lung = system: DMS 273 small cell lung

| Compound | GI50 (SK-MEL-2 melanoma) [µM] | TGI (SK-MEL-2 melanoma) | GI50 (M14 melanoma) [µM] | TGI (M14 melanoma) | GI50 (KM12 colon) [µM] | TGI (KM12 colon) | GI50 (COLO 205 colon) [µM] | TGI (COLO 205 colon) | GI50 (EKVX NSCLC) [µM] | TGI (EKVX NSCLC) | GI50 (ACHN renal) [µM] | TGI (ACHN renal) | GI50 (RXF 393 renal) [µM] | TGI (RXF 393 renal) [µM] | GI50 (SF-295 CNS) [µM] | TGI (SF-295 CNS) | GI50 (IGROV1 ovarian) | TGI (IGROV1 ovarian) | TGI (DMS 273 small cell lung) [µM] |
| --- | --- | --- | --- | --- | --- | --- | --- | --- | --- | --- | --- | --- | --- | --- | --- | --- | --- | --- | --- |
| N#CC1c2ccccc2-c2ccccc2N1C(=O)c1ccccc1 (stereo unspecified) | 2.78 | > 29.6 µM | 1.47 | 7.1 µM | 1.16 | 4.17 µM | 1.56 | 3.67 µM | 7.2 | > 100 µM | 4.05 | > 100 µM | 0.913 | 13.2 | 2.63 | > 100 µM | 2.66 µM | 7.01 µM |  |
| CC1=C(C#N)C(N)=C2C(C)=C(C#N)C(N)=C12 |  |  |  | > 100 µM |  | > 100 µM |  | > 100 µM |  | > 100 µM |  |  |  | > 100 |  | > 100 µM |  | > 100 µM | > 100 |
| COC(=O)C12CC(C3CC31)C1CC12 (stereo unspecified) |  |  |  | > 100 µM |  |  |  | > 100 µM |  |  |  | > 100 µM |  |  |  | > 100 µM |  | > 100 µM | > 100 |
| O=c1oc(-c2ccc(O)c(O)c2)cc2cc(O)cc(O)c12 | 74.4 | > 100 µM | 33.2 | 93.9 µM | 28.6 | > 100 µM | 41.8 | > 100 µM | 28.4 | 91.3 µM | 45.3 | > 100 µM | 35.9 | > 100 | 43.7 | > 100 µM | 2.19 µM | 43.2 µM |  |
| CN1CCCC1c1cccnc1.O=C(O)c1ccccc1O.O=C([O-])c1ccccc1[OH2+].O=C([O-])c1ccccc1[OH2+].O=C([O-])c1ccccc1[OH2+].[Mn+2] (stereo unspecified) | > 100 | > 100 µM | > 100 | > 100 µM | > 100 | > 100 µM | > 100 | > 100 µM | > 100 | > 100 µM | > 100 | > 100 µM | > 100 | > 100 | > 100 | > 100 µM | 97.7 µM | > 100 µM |  |
| c1ccc2c(c1)nc(NCCN1CCNCC1)c1c3ccccc3[nH]c21 | 1.41 | 2.89 µM | 1.24 | 2.81 µM | 0.369 | 2.56 µM | 0.346 | 1.87 µM | 0.742 | 4.38 µM | 0.369 | 2.38 µM | 0.438 | 2.04 | 0.618 | 2.21 µM | 0.84 µM | 8.18 µM |  |
| C[C@@H](NC(=O)Cc1cc(F)cc(F)c1)C(=O)N[C@@]1(C)N=C(c2ccccc2)c2ccccc2N(C)C1=O | > 100 | > 100 µM | 26 | > 86.6 µM | 41.3 | > 100 µM | 47.2 | > 100 µM | 30.2 | > 85.8 µM | > 84.5 | > 100 µM | 30.7 | > 100 | 42.8 | > 100 µM | > 65.6 µM | > 100 µM |  |
| COC(=O)/C(C#N)=C1\N=NNN1CCCN1CCOCC1 |  |  |  | > 100 µM |  | > 100 µM |  | > 100 µM |  | > 100 µM |  | > 100 µM |  | > 100 |  | > 100 µM |  | > 100 µM | > 100 |
| O=C(Oc1c(I)ccccc1=O)c1ccc([N+](=O)[O-])cc1 |  | 45.1 µM |  | 73.3 µM |  | 35.6 µM |  | 27.8 µM |  | 28.3 µM |  | 68.5 µM |  | 21.7 |  | 62.1 µM |  | 29.2 µM |  |
| CC1(CC(=O)O)OC2CCCCCC2O1 (stereo unspecified) (tested in a mixture with another compound) |  | > 100 µM |  | > 100 µM |  | > 100 µM |  | > 100 µM |  | > 100 µM |  | > 100 µM |  | > 100 |  | > 100 µM |  | > 100 µM |  |
| Cc1ccc(NCSc2ccc(Cl)cc2)cc1 | > 100 | > 100 µM | 77.1 | > 100 µM | 9.91 | > 100 µM | 5.94 | > 100 µM | 31.4 | > 100 µM | > 100 | > 100 µM | 30.4 | > 100 | 24.9 | > 100 µM | 15.3 µM | > 100 µM |  |
| NC(Cc1nn[nH]n1)C(=O)O (stereo unspecified) |  | > 100 µM |  | > 100 µM |  | > 100 µM |  | > 100 µM |  | > 100 µM |  | > 100 µM |  | > 100 |  | > 100 µM |  | > 100 µM |  |
| O=c1c2ccccc2nc(-c2ccccc2)n1NCC1(O)OCC(O)C(O)C1O (stereo unspecified) |  | > 100 µM |  | > 100 µM |  | > 100 µM |  | > 100 µM |  | > 100 µM |  | > 100 µM |  |  |  | > 100 µM |  | > 100 µM | > 100 |
| O=C1CCC2(CCC(=O)NC2=O)C(=O)N1 |  |  |  | > 100 µM |  | > 100 µM |  | > 100 µM |  | > 100 µM |  | > 100 µM |  | > 100 |  | > 100 µM |  | > 100 µM | > 100 |
| C/C(=C(/c1ccc(O)cc1)c1ccc(OCCN2CCCC2)cc1)c1ccccc1 | 1.97 | 3.95 µM | 1.88 | 4.08 µM | 3.51 | 13.2 µM | 1.7 | 3.38 µM | 2.46 | 11.5 µM | 4.28 | 16.3 µM | 2 | 5.05 | 1.95 | 4.19 µM | 6.8 µM | 27 µM |  |
| O=C1c2c(O)cccc2C(C(=O)CCCCC(=O)C2c3cccc(O)c3C(=O)c3c(O)cccc32)c2cccc(O)c21 | 1.24 | 1.22 µM and 2.46 µM | 1.75 | 2.54 µM and 5.03 µM | 0.884 | 1.31 µM and 1.68 µM | 1.02 | 3.36 µM and 2.21 µM | 1.55 | 1.64 µM and 3.68 µM | 2.04 | 1.95 µM and 6.17 µM |  |  | 0.672 | 4.57 µM and 1.49 µM | 0.664 µM and 1.37 µM | 1.74 µM and 3.7 µM | 4.51 |
